Source: PubChem BioAssay (NCI)
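Grown in 96-well plates, cells were treated for 48 hours with each compound at five concentrations. Insufficient inhibition: endpoint recorded as highest concentration tested. TGI denotes the concentration required for complete inhibition of growth.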

Key:
Experiment in all cases: inhibition of tumour cell growth, NCI panel, 48 h
NCI/ADR-RES ovarian = system: NCI/ADR-RES ovarian
MDA-N = system: MDA-N
KM12 colon = system: KM12 colon
NCI-H23 lung = system: NCI-H23 lung
SK-MEL-28 melanoma = system: SK-MEL-28 melanoma
BT-549 breast = system: BT-549 breast
T-47D breast = system: T-47D breast
MOLT-4 leukemia = system: MOLT-4 leukemia

Structure (SMILES)	TGI (NCI/ADR-RES ovarian)	TGI (MDA-N)	TGI (KM12 colon)	TGI (NCI-H23 lung)	TGI (SK-MEL-28 melanoma)	TGI (BT-549 breast)	TGI (T-47D breast)	TGI (MOLT-4 leukemia)
COc1cc(Oc2nc3ccc(C(F)(F)F)cc3nc2-c2ccccc2)cc(OC)c1OC	> 100 µM	> 100 µM	> 100 µM	> 100 µM	> 100 µM	56 µM	> 100 µM	–
c1ccc(N=C2c3ccsc3C(=Nc3ccccc3)c3ccsc32)cc1	14.4 µM	0.554 µM	6.35 µM	3.03 µM	3.97 µM	3.6 µM	4.06 µM	3.77 µM
C[N+](C)(C)c1ncnc2c1ncn2C1CCCO1 (stereo not given)	> 100 µM	> 100 µM	> 100 µM	> 100 µM	> 100 µM	> 100 µM	> 100 µM	> 100 µM
CN=C(Nc1cccc(C(F)(F)F)c1)SCc1ccc(N=C=S)cc1	61.3 µM	28 µM	29.3 µM	31.4 µM	48.9 µM	–	29.9 µM	36 µM
COc1ccc2c3c1O[C@H](c1ccc(O)cc1)[C@H]3[N+](C)(C)CC2	> 100 µM	> 100 µM	> 100 µM	> 100 µM	> 100 µM	> 100 µM	> 100 µM	> 100 µM
CO/N=C1/c2sccc2[C@H](NC(=O)C(Cc2ccccc2)NC(=O)OC(C)(C)C)[C@@H]1O (stereo not given in full)	> 100 µM	> 100 µM	–	> 100 µM	> 100 µM	> 100 µM	> 100 µM	> 100 µM
CN(C)CCc1c2c(nc3ccccc13)C(=O)c1cccnc1C2=O	1.03 µM	1.38 µM	1.38 µM	0.49 µM	1.76 µM	1.71 µM	10.6 µM	6.71 µM
CCOC(=O)Cn1nnc2ccc(Nc3nc4ccccc4nc3-c3ccccc3)cc21	> 100 µM	> 100 µM	> 100 µM	> 100 µM	> 100 µM	> 100 µM	> 100 µM	> 100 µM
OC(c1cccnc1Cl)c1nc2ccccc2c2ccnc(Cl)c12 (stereo not given)	> 100 µM	4.49 µM	> 100 µM	> 100 µM	> 100 µM	> 100 µM	> 100 µM	> 100 µM
CC1(C)CC(=O)c2c(nc3c4c([nH]c(-c5ccc(Br)cc5)c24)CC(C)(C)C3)C1	> 100 µM	> 100 µM	> 100 µM	> 100 µM	> 100 µM	> 100 µM	> 100 µM	> 100 µM
Cc1cnc2c(c1C)C(=O)c1ccccc1C2=O	> 100 µM	–	> 100 µM	> 100 µM	> 100 µM	> 100 µM	> 100 µM	> 100 µM
CSc1c(C#N)c(N)n(-c2ccc(Cl)cc2)c(=O)c1C#N	> 100 µM	> 100 µM	> 100 µM	> 100 µM	> 100 µM	> 100 µM	> 100 µM	> 100 µM
CCN(CC)c1nnc(CCCCCCCCc2nnc(N(CC)CC)o2)o1	> 100 µM	> 100 µM	> 100 µM	> 100 µM	> 100 µM	> 100 µM	–	> 100 µM
Cc1cc2c(cc1C)[n+](=O)c(C(=O)c1ccccc1)c(C(F)(F)F)n2[O-]	> 26.2 µM	14.2 µM	5.1 µM	6.78 µM	16.4 µM	23.9 µM	5.08 µM	> 28.3 µM
C=CCOc1ccc(C2C(C(=O)OC)C(=O)CC(O)(c3ccccc3)C2C(=O)OC)cc1OC (stereo not given)	66 µM	> 100 µM	> 100 µM	> 100 µM	> 100 µM	> 100 µM	46.9 µM	> 100 µM
CCCc1[nH]c2ccccc2c1-c1c(CCC)[nH]c2ccccc12	51.8 µM	24.4 µM	> 61.2 µM	26.8 µM	21.6 µM	35.6 µM	–	> 100 µM
CC1CC(C#N)=C2NCCN2C1=O (stereo not given)	> 100 µM	31.8 µM	> 100 µM	> 100 µM	> 100 µM	> 100 µM	> 100 µM	> 100 µM
CC(C)(CCC(C)(C)N1OC1c1ccccc1)N1OC1c1ccccc1 (stereo not given)	> 100 µM	> 100 µM	> 100 µM	> 100 µM	> 100 µM	> 100 µM	> 100 µM	–
COc1cc(Nc2nc3cc(C(F)(F)F)ccc3n3cccc23)cc(OC)c1OC	> 100 µM	> 100 µM	–	> 100 µM	> 100 µM	> 100 µM	9.91 µM	> 100 µM
O=c1[nH]nc(-c2ccccc2)n1O	> 100 µM	> 100 µM	> 100 µM	> 100 µM	> 100 µM	–	> 100 µM	> 100 µM
COc1cc(CNc2nc3ccccc3nc2C(=O)O)cc(OC)c1OC	> 100 µM	> 100 µM	> 100 µM	> 100 µM	> 100 µM	> 100 µM	> 100 µM	> 100 µM
Cn1c(=O)n2n(c1=O)C(C)(C13CC4CC(CC(C4)C1)C3)C13CC4CC(CC1C4)CC23 (stereo not given)	> 100 µM	> 100 µM	> 100 µM	> 100 µM	> 100 µM	> 100 µM	> 100 µM	> 100 µM
CC(C)/C(Cl)=N/OC(=O)Nc1ccc(Cl)c(Cl)c1	32 µM	10.8 µM	32.6 µM	29.5 µM	8.5 µM	9.62 µM	12.2 µM	6.2 µM
Nc1ncnc2c1ncn2[C@@H]1O[C@H](COC(c2ccccc2)(c2ccccc2)c2ccccc2)[C@@H](OC(=S)Oc2ccccc2)[C@@H]1F	18.5 µM	–	29.1 µM	16 µM	33.5 µM	19.9 µM	52.3 µM	5.98 µM
Clc1ccc2oc(CCc3ccccc3)nc2c1	> 100 µM	> 100 µM	> 100 µM	> 100 µM	> 100 µM	> 100 µM	> 100 µM	> 100 µM
